Measurements from patent US8546380B2, “Aminodihydrothiazine derivatives” (Shionogi & Co., Ltd., priority 2005, dated 2013).
Read-outs that look alike come from different tables or passages of the source.

Biological target: recombinant human BACE-1 protein (Homo sapiens (Human), UniProt P56817)
Assay: Measurement of Inhibition of β-Secretase Activity
Type: biochemical
Details: 3 h at 30° C., pH5.0, read-out: IC50 value
Experimental: Zero point five μL of the test compounds (dissolved in N,N′-dimethylsulfoxide) were incubated with 48.5 μL of the fluorescence-quenched peptide substrate solution (Biotin-XSEVNLDAEFRHDSGC-Eu:X=ε-amino-n-capronic acid, Eu=Europium cryptate) and 1 μL of recombinant human BACE-1 protein (R&D systems) for 3 h at 30° C. in the 96 well half-area plate (black color plate, Costar). The substrate peptide was synthesized by reacting with Biotin-XSEVNLDAEFRHDSGC (Peptide Institute) and Cryptate TBPCOOH mono SMP (CIS bio international). […] The enzymatic reaction was performed in sodium acetate buffer (50 mM sodium acetate (pH5.0), 0.008% Triton X-100). After the reaction, a 50 μL of 8.0 μg/mL Streptavidin-XL665 (CIS bio international) dissolved in phosphate buffer (150 mM K2HPO4—KH2PO4 (pH 7.0), 0.008% Triton X-100, 0.8 M KF) was add to each well and incubated for 1 h at 30° C.

[1] = fluorescence-quenched peptide substrate 18 nM, BACE-1 7.4 nM
[2] = recombinant human BACE-1 protein

Chain of recombinant human BACE-1 protein (P56817 46-501): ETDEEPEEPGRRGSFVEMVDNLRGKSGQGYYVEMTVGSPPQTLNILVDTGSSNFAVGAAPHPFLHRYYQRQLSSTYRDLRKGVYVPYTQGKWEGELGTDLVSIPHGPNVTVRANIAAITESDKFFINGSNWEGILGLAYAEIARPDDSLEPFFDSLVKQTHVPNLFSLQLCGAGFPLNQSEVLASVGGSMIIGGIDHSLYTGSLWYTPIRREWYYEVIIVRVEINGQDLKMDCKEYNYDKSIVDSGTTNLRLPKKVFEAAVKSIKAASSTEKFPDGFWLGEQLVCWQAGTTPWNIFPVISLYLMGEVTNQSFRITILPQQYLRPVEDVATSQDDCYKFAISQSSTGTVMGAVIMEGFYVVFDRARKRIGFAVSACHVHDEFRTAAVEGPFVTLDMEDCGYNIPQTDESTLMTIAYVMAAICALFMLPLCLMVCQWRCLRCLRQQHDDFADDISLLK

## CC1(c2cccc(CNC(=O)Nc3ccccc3)c2)CCSC(N)=N1 (stereo not shown) [Compound 4]
[1]
  IC50: < 100 µM

## Cc1ccc(C(=O)Nc2cccc(C3(C)CCSC(N)=N3)c2)c(C)c1 (stereo not shown) [Compound 12]
[1]
  IC50: < 100 µM

## CC1(c2cccc(NC(=O)COc3ccc(F)cc3)c2)CCSC(N)=N1 (stereo not shown) [Compound 17]
[1]
  IC50: < 100 µM

## CC1(c2cc(NC(=S)c3ccc(Cl)cc3)cc(S(C)(=O)=O)c2)CCSC(N)=N1 (stereo not shown) [Compound 30]
[1]
  IC50: < 100 µM

## CC1(c2cc(NC(=O)c3ccc(Cl)cc3)ccc2F)CCSC(N)=N1 (stereo not shown) [Compound 31]
[1]
  IC50: < 100 µM

## CC1(c2cccc(NC(=O)c3cc(F)c(Cl)cc3F)c2)CCSC(N)=N1 (stereo not shown) [Compound 35]
[1]
  IC50: < 100 µM

## CC1(c2cccc(NC(=S)Nc3ccc(Br)cc3)c2)CCSC(N)=N1 (stereo not shown) [Compound 43]
[1]
  IC50: < 100 µM

## C[C@@H](NC(=O)c1ccc(C2(C)CCSC(N)=N2)s1)c1ccccc1 (stereo partly shown) [Compound 52]
[2]
  IC50: 10 µM

## Cc1ccc(S(=O)(=O)Nc2cc(C3(C)CCSC(N)=N3)ccc2F)cc1 (stereo not shown) [Compound 61]
[1]
  IC50: < 100 µM

## COc1ccc(NC(=O)COc2cccc(C3(C)CCSC(N)=N3)c2)cc1 (stereo not shown) [Compound 67]
[1]
  IC50: < 100 µM

## CC1(c2cc(NC(=S)c3ccc(Br)cc3)cc(S(C)(=O)=O)c2)CCSC(N)=N1 (stereo not shown) [Compound 71]
[1]
  IC50: < 100 µM

## COCCn1c(C(=O)Nc2cccc(C3(C)CCSC(N)=N3)c2)cc2ccccc21 (stereo not shown) [Compound 77]
[1]
  IC50: < 100 µM

## Cn1c(CNc2cccc(C3(C)CCSC(N)=N3)c2)cc2ccccc21 (stereo not shown) [Compound 78]
[1]
  IC50: < 100 µM

## CC1(c2cccc(NC(=O)c3ccc(CO)cn3)c2)CCSC(N)=N1 (stereo not shown) [Compound 80]
[1]
  IC50: < 100 µM

## CC1(c2cc(Cl)cc(NC(=O)c3nc4ccccc4s3)c2)CCSC(N)=N1 (stereo not shown) [Compound 96]
[2]
  IC50: 0.163 µM

## CC1(c2cc(NC(=O)c3cocn3)ccc2F)CCSC(N)=N1 (stereo not shown) [Compound 97]
[1]
  IC50: < 100 µM

## CC1(c2cccc(OCC(=O)Nc3ccc(C(F)(F)F)cc3)c2)CCSC(N)=N1 (stereo not shown) [Compound 105]
[1]
  IC50: < 100 µM

## CC1(c2cccc(OCC(=O)Nc3ccc(-n4cnc(Cl)c4Cl)cc3)c2)CCSC(N)=N1 (stereo not shown) [Compound 106]
[1]
  IC50: < 100 µM

## CC1(c2cccc(NC(=O)Cc3cc(Cl)ccn3)c2)CCSC(N)=N1 (stereo not shown) [Compound 113]
[1]
  IC50: < 100 µM

## CCCNc1ccc(C(=O)Nc2cccc(C3(C)CCSC(N)=N3)c2)nc1 (stereo not shown) [Compound 114]
[1]
  IC50: < 100 µM

## CC1(c2cc(NC(=O)c3ccc[nH]3)ccc2F)CCSC(N)=N1 (stereo not shown) [Compound 115]
[1]
  IC50: < 100 µM

## COc1ccc2nc(NC(=O)c3cccc(C4(C)CCSC(N)=N4)c3)sc2c1 (stereo not shown) [Compound 117]
[1]
  IC50: < 100 µM

## CC1(c2cccc(NCC3CCCCC3)c2)CCSC(N)=N1 (stereo not shown) [Compound 120]
[1]
  IC50: < 100 µM

## CC1(c2cccc(NC(=O)CCNC(=O)c3ccc(Cl)cn3)c2)CCSC(N)=N1 (stereo not shown) [Compound 134]
[1]
  IC50: < 100 µM

## CC1(c2cccc(NC(=O)c3ccc(OCc4ccccc4)cc3)c2)CCSC(N)=N1 (stereo not shown) [Compound 144]
[1]
  IC50: < 100 µM

## COc1ccc(C(=O)Nc2cccc(C3(C)CCSC(N)=N3)c2)cc1[N+](=O)[O-] (stereo not shown) [Compound 154]
[1]
  IC50: < 100 µM

## CC(C)Nc1cnc(C(=O)Nc2cccc(C3(C)CCSC(N)=N3)c2)cn1 (stereo not shown) [Compound 157]
[1]
  IC50: < 100 µM

## COc1ccc(NC(=O)NCc2cccc(C3(C)CCSC(N)=N3)c2)cc1 (stereo not shown) [Compound 159]
[1]
  IC50: < 100 µM

## CC1(c2cc(NC(=O)c3ccco3)cc(C(F)(F)F)c2)CCSC(N)=N1 (stereo not shown) [Compound 163]
[2]
  IC50: 2.28 µM

## Cc1cc(C(=O)Nc2cccc(C3(C)CCSC(N)=N3)c2)ccc1Cl (stereo not shown) [Compound 172]
[1]
  IC50: < 100 µM

## CC1(c2cccc(NC(=O)c3ccc(OC(F)(F)F)cc3)c2)CCSC(N)=N1 (stereo not shown) [Compound 175]
[1]
  IC50: < 100 µM

## COCc1cc(NC(=O)c2ccco2)cc(C2(C)CCSC(N)=N2)c1 (stereo not shown) [Compound 176]
[2]
  IC50: 1.48 µM

## CC1(c2cccc(NC(=O)Nc3ccc(Cl)cc3)c2)CCSC(N)=N1 (stereo not shown) [Compound 181]
[1]
  IC50: < 100 µM

## CC1(c2cccc(NC(=O)c3ccc(Cl)cc3Cl)c2)CCSC(N)=N1 (stereo not shown) [Compound 182]
[1]
  IC50: < 100 µM

## COc1ccc(C2(C)CCSC(N)=N2)cc1C(=O)Nc1ccc(Cl)cn1 (stereo not shown) [Compound 186]
[1]
  IC50: < 100 µM

## CC1(c2cccc(C(=O)Nc3ccc(Cl)cn3)c2)CCSC(NC(=N)N)=N1 (stereo not shown) [Compound 189]
[1]
  IC50: < 100 µM

## CC1(c2cccc(OCC(=O)Nc3ccccc3)c2)CCSC(N)=N1 (stereo not shown) [Compound 200]
[1]
  IC50: < 100 µM

## CC1(c2cccc(NC(=O)c3ccc(I)cc3)c2)CCSC(N)=N1 (stereo not shown) [Compound 201]
[1]
  IC50: < 100 µM

## CC1(c2cccc(NC(=O)c3cccc4c3OCCO4)c2)CCSC(N)=N1 (stereo not shown) [Compound 207]
[1]
  IC50: < 100 µM

## CC1(c2cccc(NC(=O)c3ccc([N+](=O)[O-])cc3)c2)CCSC(N)=N1 (stereo not shown) [Compound 209]
[1]
  IC50: < 100 µM

## CCCCCOc1ccc(NC(=O)COc2cccc(C3(C)CCSC(N)=N3)c2)cc1 (stereo not shown) [Compound 211]
[1]
  IC50: < 100 µM

## COc1cnc(C(=O)Nc2cccc(C3(C)CCSC(N)=N3)c2)c(N(C)C)n1 (stereo not shown) [Compound 214]
[1]
  IC50: < 100 µM

## CC1(c2cccc(NC(=O)c3ccc(F)c(Br)c3)c2)CCSC(N)=N1 (stereo not shown) [Compound 215]
[1]
  IC50: < 100 µM

## CC1(c2cccc(NC(=O)CCNC(=O)c3ccc(F)cc3)c2)CCSC(N)=N1 (stereo not shown) [Compound 216]
[1]
  IC50: < 100 µM

## CC1(c2cccc(NC(=O)c3ccc4ncsc4c3)c2)CCSC(N)=N1 (stereo not shown) [Compound 228]
[1]
  IC50: < 100 µM

## Cc1ccc([S+]([O-])Nc2ccc(F)c(C3(C)CCSC(N)=N3)c2)cc1 (stereo not shown) [Compound 232]
[1]
  IC50: < 100 µM

## Cc1cccnc1C(=O)Nc1cccc(C2(C)CCSC(N)=N2)c1 (stereo not shown) [Compound 240]
[1]
  IC50: < 100 µM

## CC1(c2cccc(OCC(=O)Nc3ccc(Cl)cc3)c2)CCSC(N)=N1 (stereo not shown) [Compound 246]
[2]
  IC50: 2.9 µM

## CC1(c2ccc(F)c(C(=O)Nc3nccs3)c2)CCSC(N)=N1 (stereo not shown) [Compound 251]
[1]
  IC50: < 100 µM

## Cc1ccc(CNc2cccc(C3(C)CCSC(N)=N3)c2)cc1 (stereo not shown) [Compound 259]
[1]
  IC50: < 100 µM

## CC1(c2cccc(OCC(=O)Nc3cccc(O)c3)c2)CCSC(N)=N1 (stereo not shown) [Compound 269]
[2]
  IC50: 7 µM

## CC1(c2cccc(NC(=O)c3cccc(Br)c3)c2)CCSC(N)=N1 (stereo not shown) [Compound 273]
[1]
  IC50: < 100 µM

## CC1(c2ccc(NC(=O)c3ccc(Br)cc3)cc2)CCSC(N)=N1 (stereo not shown) [Compound 278]
[1]
  IC50: < 100 µM

## CC1(c2cccc(NC(=O)c3ccc(N)cn3)c2)CCSC(N)=N1 (stereo not shown) [Compound 279]
[1]
  IC50: < 100 µM

## CC1(c2cccc(CNc3ccccn3)c2)CCSC(N)=N1 (stereo not shown) [Compound 281]
[1]
  IC50: < 100 µM

## CC1(c2cccc(NC(=O)c3cccc(Cl)n3)c2)CCSC(N)=N1 (stereo not shown) [Compound 298]
[1]
  IC50: < 100 µM

## CC(C)Oc1ccc(C(=O)Nc2cccc(C3(C)CCSC(N)=N3)c2)nc1 (stereo not shown) [Compound 299]
[1]
  IC50: < 100 µM

## COc1ccc(C(=O)Nc2cccc(C3(C)CCSC(N)=N3)c2)cc1 (stereo not shown) [Compound 300]
[1]
  IC50: < 100 µM

## CC1(c2cccc(NC(=O)c3cc4ccccc4o3)c2)CCSC(N)=N1 (stereo not shown) [Compound 303]
[1]
  IC50: < 100 µM

## Cc1nocc1C(=O)Nc1cccc(C2(C)CCSC(N)=N2)c1 (stereo not shown) [Compound 307]
[1]
  IC50: < 100 µM

## CC(=O)c1ccc(C(=O)Nc2cccc(C3(C)CCSC(N)=N3)c2)cc1 (stereo not shown) [Compound 314]
[1]
  IC50: < 100 µM

## CC1(c2cccc(NC(=O)c3ccc(NC(=O)c4ccccn4)cn3)c2)CCSC(N)=N1 (stereo not shown) [Compound 319]
[1]
  IC50: < 100 µM

## CC1(c2cccc(NC(=O)c3ccc(-n4cccn4)cc3)c2)CCSC(N)=N1 (stereo not shown) [Compound 321]
[1]
  IC50: < 100 µM

## COc1ccc(NC(=O)COc2cccc(C3(C)CCSC(N)=N3)c2)cc1F (stereo not shown) [Compound 322]
[1]
  IC50: < 100 µM

## CC1(c2cccc(OCC(=O)Nc3ccc(OC(F)(F)F)cc3)c2)CCSC(N)=N1 (stereo not shown) [Compound 326]
[1]
  IC50: < 100 µM

## COC(=O)c1ccc(C(=O)Nc2cccc(C3(C)CCSC(N)=N3)c2)cc1 (stereo not shown) [Compound 328]
[1]
  IC50: < 100 µM

## CC1(c2cc(NC(=O)c3ccc(F)cc3)cc(S(C)(=O)=O)c2)CCSC(N)=N1 (stereo not shown) [Compound 330]
[1]
  IC50: < 100 µM

## CC1(c2cccc(NC(=O)c3ccco3)c2)CCSC(N)=N1 (stereo not shown) [Compound 335]
[1]
  IC50: < 100 µM

## CC1(c2cccc(CCC(=O)Nc3ccc(Cl)cc3)c2)CCSC(N)=N1 (stereo not shown) [Compound 341]
[1]
  IC50: < 100 µM

## CC1(c2cc(NC(=O)c3cc4ccccc4[nH]3)ccc2F)CCSC(N)=N1 (stereo not shown) [Compound 344]
[1]
  IC50: < 100 µM

## CC1(c2ccc(F)c(NC(=O)c3ccccc3C(F)(F)F)c2)CCSC(N)=N1 (stereo not shown) [Compound 345]
[1]
  IC50: < 100 µM

## COC(=O)c1cccc(C(=O)Nc2cccc(C3(C)CCSC(N)=N3)c2)c1 (stereo not shown) [Compound 346]
[1]
  IC50: < 100 µM

## Cc1cccc(C(=O)Nc2cccc(C3(C)CCSC(N)=N3)c2)n1 (stereo not shown) [Compound 348]
[1]
  IC50: < 100 µM
